# Test results taken from patent US8802597B2, “Herbicidal pyrimidines” (E I du Pont de Nemours and Company, priority 2003, dated 2014).
# Where two headings read alike, the source gives them in different places.
# Tests used:
# Assay type in all cases: in vivo
# [1] = tested on: Surinam grass (Brachiaria decumbens); experiment: Test B pre/postemergence; settings: Urochloa decumbens; for pest or weed control at 125 g/ha: 125 g ai/ha; for pest or weed control at 62 g/ha: 62 g ai/ha
# How it was run: (§1)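 Plants treated pre- or postemergence were compared visually with controls after 13 to 15 days. Ratings ran from 0, no effect, to 100, complete control.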
# [2] = tested on: barnyardgrass (Echinochloa crus-galli); experiment: Test B pre/postemergence; settings: Echinochloa crus-galli, scale 0 to 100 (0 no effect, 100 complete control); for pest or weed control at 62 g/ha: 62 g ai/ha; for pest or weed control at 125 g/ha: 125 g ai/ha
# How it was run: as §1
# [3] = tested on: cocklebur (Xanthium strumarium); experiment: Test B pre/postemergence; settings: for pest or weed control at 125 g/ha: 125 g ai/ha
# How it was run: as §1
# [4] = tested on: corn (Zea mays); experiment: Test B pre/postemergence; settings: Zea mays
# How it was run: as §1
# [5] = tested on: crabgrass (Digitaria sanguinalis); experiment: Test B pre/postemergence; settings: Digitaria sanguinalis; for pest or weed control at 62 g/ha: 62 g ai/ha; for pest or weed control at 125 g/ha: 125 g ai/ha
# How it was run: as §1
# [6] = tested on: giant foxtail (Setaria faberii); experiment: Test B pre/postemergence; settings: Setaria faberi; for pest or weed control at 125 g/ha: 125 g ai/ha; for pest or weed control at 62 g/ha: 62 g ai/ha
# How it was run: as §1
# [7] = tested on: lambsquarters (Chenopodium album); experiment: Test B pre/postemergence; settings: Chenopodium album; for pest or weed control at 62 g/ha: 62 g ai/ha; for pest or weed control at 125 g/ha: 125 g ai/ha
# How it was run: as §1
# [8] = tested on: morningglory (Ipomoea coccinea); experiment: Test B pre/postemergence; settings: Ipomoea; for pest or weed control at 62 g/ha: 62 g ai/ha; for pest or weed control at 125 g/ha: 125 g ai/ha
# How it was run: as §1
# [9] = tested on: pigweed (Amaranthus retroflexus); experiment: Test B pre/postemergence; settings: Amaranthus retroflexus; for pest or weed control at 62 g/ha: 62 g ai/ha; for pest or weed control at 125 g/ha: 125 g ai/ha
# How it was run: as §1
# [10] = tested on: velvetleaf (Abutilon theophrasti); experiment: Test B pre/postemergence; settings: Abutilon theophrasti; for pest or weed control at 62 g/ha: 62 g ai/ha; for pest or weed control at 125 g/ha: 125 g ai/ha
# How it was run: as §1
# [11] = tested on: wheat (Triticum aestivum); experiment: Test B pre/postemergence; settings: Triticum aestivum, scale 0 to 100 (0 no effect, 100 complete control); for plant injury at 62 g/ha: 62 g ai/ha; for plant injury at 125 g/ha: 125 g ai/ha
# How it was run: as §1
# [12] = tested on: blackgrass (Alopecurus myosuroides); experiment: Test B postemergence; settings: Alopecurus myosuroides, post-emergence, scale 0 to 100 (0 no effect, 100 complete control), read-out: Blackgrass plant response rating
# How it was run: as §1
# [13] = tested on: wild oat (Avena fatua); experiment: Test B postemergence; settings: Avena fatua, post-emergence, scale 0 to 100 (0 no effect, 100 complete control), read-out: Oat, Wild plant response rating
# How it was run: as §1
# [14] = tested on: barnyardgrass (Echinochloa crus-galli); experiment: Test B flooded paddy test; settings: Flood, scale 0 to 100
# How it was run: (§2)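 Visual injury scoring (0 = no effect, 100 = complete control) versus controls made 13 to 15 days after treatment in the greenhouse. Test species were grown in flooded paddy to the 2-leaf stage: rice, barnyardgrass, umbrella sedge, duck salad.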
# [15] = tested on: duck salad (Heteranthera limosa); experiment: Test B flooded paddy test; settings: Heteranthera limosa, Flood, scale 0 to 100, read-out: Plant response rating, Ducksalad
# How it was run: as §2
# [16] = tested on: rice (Oryza sativa); experiment: Test B flooded paddy test; settings: Flood, scale 0 to 100
# How it was run: as §2
# [17] = tested on: umbrella sedge (Cyperus difformis); experiment: Test B flooded paddy test; settings: Flood, scale 0 to 100
# How it was run: as §2
# [18] = post-emergence, Postemergence, scale 0 to 100 (0 no effect, 100 complete control), read-out: Surinam Grass plant response rating
# [19] = post-emergence, Postemergence, read-out: Barnyardgrass plant response rating
# [20] = pre-emergence, Preemergence, read-out: Plant response rating, Barnyardgrass
# [21] = post-emergence, Postemergence, scale 0 to 100 (0 no effect, 100 complete control), read-out: Crabgrass plant response rating
# [22] = post-emergence, Postemergence, scale 0 to 100 (0 no effect, 100 complete control), read-out: Foxtail, Giant plant response rating
# [23] = post-emergence, Postemergence, scale 0 to 100 (0 no effect, 100 complete control), read-out: Lambsquarters plant response rating
# [24] = post-emergence, Postemergence, scale 0 to 100 (0 no effect, 100 complete control), read-out: Morningglory plant response rating
# [25] = post-emergence, Postemergence, scale 0 to 100 (0 no effect, 100 complete control), read-out: Pigweed plant response rating
# [26] = post-emergence, Postemergence, scale 0 to 100 (0 no effect, 100 complete control), read-out: Velvetleaf plant response rating
# [27] = post-emergence, Postemergence, read-out: Wheat plant response rating
# [28] = pre-emergence, Preemergence, read-out: Plant response rating, Wheat
structure (smiles),measurement,setting,value
"Nc1nc(C2CC2)nc(C(=O)[O-])c1Cl.[Na+] [Compound 77, 6-amino-5-chloro-2-cyclopropyl-4-pyrimidinecarboxylic acid monosodium salt]",pest or weed control at 125 g/ha,[1]; [18],80%
same,pest or weed control at 62 g/ha,[1]; [18],70%
same,pest or weed control at 125 g/ha,"[1]; pre-emergence, Preemergence, scale 0 to 100 (0 no effect, 100 complete control), read-out: Plant response rating, Surinam Grass",90%
same,pest or weed control at 62 g/ha,"[1]; pre-emergence, Preemergence, scale 0 to 100, 0 no effect, 100 complete control, read-out: Plant response rating, Surinam Grass",60%
same,pest or weed control at 62 g/ha,[2]; [19],60%
same,pest or weed control at 125 g/ha,[2]; [19],90%
same,pest or weed control at 62 g/ha,[2]; [20],70%
same,pest or weed control at 125 g/ha,[2]; [20],90%
same,Cocklebur plant response rating,"[3]; Postemergence, 62 g ai/ha, scale 0 to 100 (0 no effect, 100 complete control)",70
same,pest or weed control at 125 g/ha,"[3]; Xanthium strumarium, post-emergence, Postemergence, scale 0 to 100 (0 no effect, 100 complete control), read-out: Cocklebur plant response rating",100%
same,pest or weed control at 62 g/ha,"[3]; Xanthium strumarium, pre-emergence, Preemergence, 62 g ai/ha, scale 0 to 100, 0 no effect, 100 complete control, read-out: Plant response rating, Cocklebur",80%
same,pest or weed control at 125 g/ha,"[3]; Xanthium strumarium, pre-emergence, Preemergence, scale 0 to 100 (0 no effect, 100 complete control), read-out: Plant response rating, Cocklebur",100%
same,plant injury at 62 g/ha,"[4]; post-emergence, Postemergence, 62 g ai/ha, scale 0 to 100 (0 no effect, 100 complete control), read-out: Corn plant response rating",30%
same,plant injury at 125 g/ha,"[4]; post-emergence, Postemergence, 125 g ai/ha, scale 0 to 100 (0 no effect, 100 complete control), read-out: Corn plant response rating",80%
same,"Corn plant response rating (crop injury, 0 = no effect, 100 = complete kill) at 62 g/ha","[4]; pre-emergence, Preemergence, 62 g ai/ha, scale 0 to 100, 0 no effect, 100 complete control",70%
same,"Corn plant response rating (crop injury, 0 = no effect, 100 = complete kill) at 125 g/ha","[4]; pre-emergence, Preemergence, 125 g ai/ha, scale 0 to 100 (0 no effect, 100 complete control)",80%
same,pest or weed control at 62 g/ha,[5]; [21],70%
same,pest or weed control at 125 g/ha,[5]; [21],80%
same,pest or weed control at 62 g/ha,"[5]; pre-emergence, Preemergence, scale 0 to 100, 0 no effect, 100 complete control, read-out: Plant response rating, Crabgrass",80%
same,pest or weed control at 125 g/ha,"[5]; pre-emergence, Preemergence, scale 0 to 100 (0 no effect, 100 complete control), read-out: Plant response rating, Crabgrass",90%
same,pest or weed control at 125 g/ha,[6]; [22],80%
same,pest or weed control at 62 g/ha,[6]; [22],70%
same,pest or weed control at 125 g/ha,"[6]; pre-emergence, Preemergence, scale 0 to 100 (0 no effect, 100 complete control), read-out: Plant response rating, Foxtail, Giant",90%
same,pest or weed control at 62 g/ha,"[6]; pre-emergence, Preemergence, scale 0 to 100, 0 no effect, 100 complete control, read-out: Plant response rating, Foxtail, Giant",70%
same,pest or weed control at 62 g/ha,[7]; [23],100%
same,pest or weed control at 125 g/ha,[7]; [23],100%
same,pest or weed control at 62 g/ha,"[7]; pre-emergence, Preemergence, scale 0 to 100, 0 no effect, 100 complete control, read-out: Plant response rating, Lambsquarters",100%
same,pest or weed control at 125 g/ha,"[7]; pre-emergence, Preemergence, scale 0 to 100 (0 no effect, 100 complete control), read-out: Plant response rating, Lambsquarters",100%
same,pest or weed control at 62 g/ha,[8]; [24],100%
same,pest or weed control at 125 g/ha,[8]; [24],100%
same,pest or weed control at 62 g/ha,"[8]; pre-emergence, Preemergence, scale 0 to 100, 0 no effect, 100 complete control, read-out: Plant response rating, Morningglory",100%
same,pest or weed control at 125 g/ha,"[8]; pre-emergence, Preemergence, scale 0 to 100 (0 no effect, 100 complete control), read-out: Plant response rating, Morningglory",100%
same,pest or weed control at 62 g/ha,[9]; [25],90%
same,pest or weed control at 125 g/ha,[9]; [25],100%
same,pest or weed control at 62 g/ha,"[9]; pre-emergence, Preemergence, scale 0 to 100, 0 no effect, 100 complete control, read-out: Plant response rating, Pigweed",100%
same,pest or weed control at 125 g/ha,"[9]; pre-emergence, Preemergence, scale 0 to 100 (0 no effect, 100 complete control), read-out: Plant response rating, Pigweed",100%
same,pest or weed control at 62 g/ha,[10]; [26],80%
same,pest or weed control at 125 g/ha,[10]; [26],90%
same,pest or weed control at 62 g/ha,"[10]; pre-emergence, Preemergence, scale 0 to 100, 0 no effect, 100 complete control, read-out: Plant response rating, Velvetleaf",80%
same,pest or weed control at 125 g/ha,"[10]; pre-emergence, Preemergence, scale 0 to 100 (0 no effect, 100 complete control), read-out: Plant response rating, Velvetleaf",100%
same,plant injury at 62 g/ha,[11]; [27],50%
same,plant injury at 125 g/ha,[11]; [27],60%
same,plant injury at 62 g/ha,[11]; [28],70%
same,plant injury at 125 g/ha,[11]; [28],70%
same,pest or weed control at 62 g/ha,[12]; 62 g ai/ha,50%
same,pest or weed control at 125 g/ha,[12]; 125 g ai/ha,60%
same,pest or weed control at 62 g/ha,[13]; 62 g ai/ha,50%
same,pest or weed control at 125 g/ha,[13]; 125 g ai/ha,60%
same,pest or weed control at 500 g/ha,"[14]; Echinochloa crus-galli, 500 g ai/ha, read-out: Plant response rating, Barnyardgrass",60%
same,"Plant response rating, Barnyardgrass",[14]; 125 g ai/ha,0
same,pest or weed control at 125 g/ha,[15]; 125 g ai/ha,40%
same,pest or weed control at 500 g/ha,[15]; 500 g ai/ha,80%
same,"Plant response rating, Rice",[16]; 125 g ai/ha,0
same,plant injury at 500 g/ha,"[16]; Oryza sativa, 500 g ai/ha, read-out: Plant response rating, Rice",50%
same,"Plant response rating, Sedge, Umbrella",[17]; 125 g ai/ha,0
same,"Plant response rating, Sedge, Umbrella",[17]; 500 g ai/ha,40
